Laboratory results reported in patent US12171821B2, “Toxoplasma gondii vaccine” (priority 2018, dated 2024).
“Also recorded” adds a separate entry of the source.

System: T. gondii ME49 bradyzoites
Assay: Gametes and intracellular oocyst walls (AO2, 3G4, PCR) in infected cat intestinal monolayers
Format: cell-based, Toxoplasma gondii
Procedure: FIGS. 7A-H. Identification of gametes and intracellular oocysts in cat tissue culture. Cat intestinal organoids were disassociated by trypsin then grown as monolayers on glass slides. […] After 7 days, monolayers were incubated with mouse anti-AO2 (panels A-C) or mouse monoclonal IgM 3G4 (panels E-G), The amiloride-sensitive amine oxidase, copper-containing protein 2 (AO2) is an enzyme exclusively expressed in macrogametes and early oocysts and has a possible role in oocyst wall biogenesis. […] 3G4 is a mouse monoclonal antibody produced by immunizing mice with purified oocyst walls, thus it is a marker of oocyst wall biogenesis. Only monolayers supplemented with linoleic acid (G) had positive 3G4 vacuoles. All panels are 20 μm square with a 5 μm white size bar in the lower right corner. D) Markers for macrogamete and microgamete expression were also evaluated by PCR. Cat intestinal monolayers were grown in 24-well plates until confluency and then infected with T. gondii bradyzoites in duplicate using the same conditions as above. 7 days post-infection, RNA was extracted with TRIzol and cDNA was synthesized using an oligo (dT) primer to only amplify mRNA. AO2 was again used as a marker for macrogametes and the expected PCR product is 218 bp. To assess microgamete presence, we selected the gene TgME49_306338, which is overexpressed in the gametes stage, corresponded to day 7 post-infection in cats and has 44% identity to a protein expressed in the flagella of the motile green algae Chlamydomonas reinhardtii. The expected PCR product for TgME49_306338 is 160 bp. TUB1A was used as an input control and results in a 172 bp product. NO RT corresponds to a cDNA synthesis reaction without the addition of reverse transcriptase (RI) as a control for genomic DNA contamination. Equivalent amounts of cDNA per sample were used as a template for each PCR reaction, and the products were separated on an acrylamide gel. […] H) The number of positive oocyst walls stained with 3G4 were quantified. […] The number of positive oocyst walls were counted in each slide and divided by the area of slide in cm^2.
Immunofluorescence. Intestinal organoid monolayers or mouse fecal samples were fixed in 3.7% formaldehyde in PBS for 20 minutes, permeabilized with 0.2% triton X-100 (Sigma) in PBS at room temperature for one hour and then blocked with 3% BSA in PBS at room temperature for one hour. Primary antibody was incubated at 4° C. overnight in 0.2% v/v Triton x-100 and 3% BSA in PBS (1:100 mouse anti-GRA11B, 1:100 rabbit anti-BRP1, 1:100 mouse anti-AO2, 1:50 monoclonal mouse anti-ZO1 (Santa Cruz) or 1:25 mouse 288 IgM anti-oocyst wall 3G4. Sporulated oocysts from mouse feces were dried onto slides, fixed and permeabilized with ice cold acetone for 30 minutes and incubated with 1:20 mouse 4B6 to the visualize the sporocyst. Slides were incubated one hour with the specific secondary antibody (1:500 goat anti-rabbit Alexa Fluor 488 and 1:500 goat anti-mouse Alexa Fluor 594) at room temperature for one hour and then washed 3 times with PBS. Cells nuclei were stained with 10 μM DAPI (Sigma). Slides were mounted in Vectashield antifade mounting medium (VectorLabs). Samples were imaged on Zeiss Axioplan III equipped with a triple-pass (DAPI/fluorescein isothiocyanate [FITC]/Texas Red) emission cube, differential interference contrast optics, and a monochromatic Axiocam camera operated by Zen software (Zeiss) and processed using ImageJ (Fiji packet).
PCR of cat intestinal monolayers. […]

CCCCC/C=C\C/C=C\CCCCCCCC(=O)O [linoleic acid]
oocyst wall production (cat cells, 20 μM linoleic acid): did not enhance oocyst wall production
macrogamete protein AO2 by immunofluorescence (cat intestinal monolayers, 200 μM fatty acid, 7 days of infection): round structures were seen with reactivity to the macrogamete protein AO210; also recorded: only detected by immunofluorescence in the monolayers supplemented with linoleic acid
AO2 and TgME49_306338 expression by PCR (bands with the correct size) (cat intestinal monolayers, 200 μM, 7 days post-infection): only observed in linoleic acid supplemented monolayers
number of positive oocyst walls stained with 3G4 (cultured cat cells, 200 μM fatty acid, 7 days of infection): approximately 9 oocyst walls per cm^2
